Source: patent US20080286809A1, “Methods” (MEDICAL RESEARCH COUNCIL, priority 2005, published 2008)

Target: T1, WNK1 (Homo sapiens, UniProt Q9H4A3)
T1 construct: made in house
Assay: ELISA assay for inhibitors of WNK activity: anti-phospho-SPAK-S373 detection of OSR1(D164A) phosphorylation
Format: biochemical
Details: non-radioactive ELISA; immobilised OSR1(D164A) substrate; anti-phospho-SPAK-S373 antibody; absorbance readout; read-out: IC50, Hypericin Inhibition of WNK1
Protocol: An example of a non-radioactive assay, suitable for screening of small drug-like compound libraries, has been developed using anti-phospho-SPAK antibodies to detect phosphorylation of WNK substrates SPAK or OSR1 in an ELISA format.
Anti-phospho-SPAK-S373 and anti-phospho-SPAK-T233 were anti-phospho-peptide antibodies raised in sheep for use in western blotting. They were evaluated for use in the ELISA format. Anti-phospho-SPAK-S373 was active in the ELISA with native OSR1 protein. SPAK and OSR1 are interchangeable in the assay as the amino acid sequences are very similar overall and have the same sequence flanking the phosphorylation sites. […] Wild type OSR1 had significant autophosphorylation/ATP hydrolytic activity, and could lead to depletion of substrates during the time course of the reaction.
The assay was performed in maxisorp (Nunc) 384-clear plates. OSR1(D164A), 30 ng/well, was coated overnight at 4° C. in Tris buffered saline (TBS) pH 7.4. […] Plates were read on an absorbance reader at […]. […]
The assay was tolerant to a wide range of ATP concentrations (1-1000 μM) and 1% DMSO (compound storage solvent). Compound interference by autofluorescence, quenching or absorbance is minimised as it is heterogeneous involving several wash steps. […]

T1 sequence (Q9H4A3 whole entry): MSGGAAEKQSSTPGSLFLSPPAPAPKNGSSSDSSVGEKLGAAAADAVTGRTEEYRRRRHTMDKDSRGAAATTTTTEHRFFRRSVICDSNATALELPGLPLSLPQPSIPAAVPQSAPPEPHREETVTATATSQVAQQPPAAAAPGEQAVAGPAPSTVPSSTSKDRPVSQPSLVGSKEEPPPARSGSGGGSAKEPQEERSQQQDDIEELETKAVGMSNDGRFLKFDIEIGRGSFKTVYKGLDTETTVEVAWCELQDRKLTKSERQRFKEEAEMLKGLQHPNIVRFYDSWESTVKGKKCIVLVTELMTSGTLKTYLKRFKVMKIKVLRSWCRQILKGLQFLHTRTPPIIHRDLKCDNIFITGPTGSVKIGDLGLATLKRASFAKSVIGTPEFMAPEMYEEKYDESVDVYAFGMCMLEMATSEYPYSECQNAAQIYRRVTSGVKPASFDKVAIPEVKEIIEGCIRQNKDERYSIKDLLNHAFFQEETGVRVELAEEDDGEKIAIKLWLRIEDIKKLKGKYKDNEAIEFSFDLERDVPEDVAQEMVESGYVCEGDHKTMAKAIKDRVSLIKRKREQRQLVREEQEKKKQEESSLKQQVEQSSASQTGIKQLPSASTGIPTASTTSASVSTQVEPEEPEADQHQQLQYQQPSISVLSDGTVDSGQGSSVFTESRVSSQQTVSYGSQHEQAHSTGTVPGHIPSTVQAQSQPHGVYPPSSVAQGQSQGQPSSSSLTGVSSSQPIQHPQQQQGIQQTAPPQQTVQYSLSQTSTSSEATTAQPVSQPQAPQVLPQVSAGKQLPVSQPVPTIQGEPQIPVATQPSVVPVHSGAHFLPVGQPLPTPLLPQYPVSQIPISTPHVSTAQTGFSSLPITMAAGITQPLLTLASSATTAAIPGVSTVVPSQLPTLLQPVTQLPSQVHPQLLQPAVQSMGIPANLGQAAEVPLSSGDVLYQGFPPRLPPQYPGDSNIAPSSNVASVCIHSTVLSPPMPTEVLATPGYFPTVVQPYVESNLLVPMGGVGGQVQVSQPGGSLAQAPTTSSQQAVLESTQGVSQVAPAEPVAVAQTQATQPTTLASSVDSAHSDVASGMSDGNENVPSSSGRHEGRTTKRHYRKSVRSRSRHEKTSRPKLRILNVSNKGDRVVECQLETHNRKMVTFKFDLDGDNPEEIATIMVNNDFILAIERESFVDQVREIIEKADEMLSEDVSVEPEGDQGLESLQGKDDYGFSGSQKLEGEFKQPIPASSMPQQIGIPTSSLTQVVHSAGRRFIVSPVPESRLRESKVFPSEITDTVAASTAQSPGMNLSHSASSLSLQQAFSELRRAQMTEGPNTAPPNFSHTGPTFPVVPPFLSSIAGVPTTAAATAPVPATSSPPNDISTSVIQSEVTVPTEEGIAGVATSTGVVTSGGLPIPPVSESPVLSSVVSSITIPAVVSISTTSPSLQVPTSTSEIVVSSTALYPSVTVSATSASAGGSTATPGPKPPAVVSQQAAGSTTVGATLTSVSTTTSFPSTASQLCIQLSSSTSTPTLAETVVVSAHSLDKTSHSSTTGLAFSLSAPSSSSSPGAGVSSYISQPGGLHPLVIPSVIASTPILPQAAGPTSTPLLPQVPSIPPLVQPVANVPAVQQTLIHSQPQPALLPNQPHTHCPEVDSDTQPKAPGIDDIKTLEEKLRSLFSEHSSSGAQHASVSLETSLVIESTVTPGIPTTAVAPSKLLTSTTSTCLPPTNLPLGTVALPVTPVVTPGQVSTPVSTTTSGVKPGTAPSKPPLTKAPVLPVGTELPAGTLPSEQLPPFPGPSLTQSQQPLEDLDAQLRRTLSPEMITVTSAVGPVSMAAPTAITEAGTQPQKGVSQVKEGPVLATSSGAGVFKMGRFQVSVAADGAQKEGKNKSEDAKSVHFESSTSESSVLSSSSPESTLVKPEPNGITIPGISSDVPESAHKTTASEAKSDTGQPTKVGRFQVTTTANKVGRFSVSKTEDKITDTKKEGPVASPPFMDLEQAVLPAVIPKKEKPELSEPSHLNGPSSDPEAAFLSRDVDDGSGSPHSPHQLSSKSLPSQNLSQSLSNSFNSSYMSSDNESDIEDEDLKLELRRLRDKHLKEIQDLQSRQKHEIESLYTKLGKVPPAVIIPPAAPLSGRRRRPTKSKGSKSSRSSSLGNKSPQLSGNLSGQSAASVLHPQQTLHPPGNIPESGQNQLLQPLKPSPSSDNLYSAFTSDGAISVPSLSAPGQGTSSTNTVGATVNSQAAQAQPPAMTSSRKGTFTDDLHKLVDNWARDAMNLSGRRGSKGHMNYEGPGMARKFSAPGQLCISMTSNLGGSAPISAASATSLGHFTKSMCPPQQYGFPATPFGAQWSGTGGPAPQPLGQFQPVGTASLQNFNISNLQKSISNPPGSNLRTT

Q: With `Cc1cc(O)c2c(=O)c3c(O)cc(O)c4c5c(O)cc(O)c6c(=O)c7c(O)cc(C)c8c1c2c(c34)c(c78)c65` [Hypericin] as the molecule, how does the IC50 read?
A: 1.5 µM
